Test results as given in ChEMBL document CHEMBL1201862, “PubChem BioAssay data set” (2004).
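Cultured in 96-well plates, cells were exposed to test compound for 48 hours across five concentrations. GI50 is the concentration that inhibits growth by half.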 The source made the active and inactive calls. Cut-off read from the data, not from the text of the source: active = GI50 up to about 1.1 µM and inactive = higher.

Tests used:
Assay in all cases: growth of human tumour cells (NCI), 48 h
SK-OV-3 = tested on: SK-OV-3
SNB-75 = tested on: SNB-75
SNB-19 = tested on: SNB-19
SF-295 = tested on: SF-295
SF-268 = tested on: SF-268
NCI-H23 = tested on: NCI-H23
HT-29 = tested on: HT-29
OVCAR-3 = tested on: OVCAR-3
HOP-92 = tested on: HOP-92
NCI-H522 = tested on: NCI-H522
SW-620 = tested on: SW-620
MOLT-4 = tested on: MOLT-4
TK-10 = tested on: TK-10
U-251 = tested on: U-251
SR = tested on: SR
OVCAR-4 = tested on: OVCAR-4
HCT-15 = tested on: HCT-15

## Clc1ccc2cccc3c2c1C1OC3c2ccccc21 (stereo unspecified)
SK-OV-3
  GI50: > 100 µM (inactive)
SNB-75
  GI50: 99.8 µM (inactive)
SNB-19
  GI50: > 100 µM (inactive)
SF-295
  GI50: > 100 µM (inactive)
SF-268
  GI50: > 100 µM (inactive)
NCI-H23
  GI50: > 100 µM (inactive)
HT-29
  GI50: 36.6 µM (inactive)
OVCAR-3
  GI50: > 100 µM (inactive)
HOP-92
  GI50: 70.8 µM (inactive)
NCI-H522
  GI50: > 100 µM (inactive)
SW-620
  GI50: > 100 µM (inactive)
MOLT-4
  GI50: > 100 µM (inactive)
TK-10
  GI50: > 100 µM (inactive)
U-251
  GI50: > 100 µM (inactive)
SR
  GI50: > 100 µM (inactive)

## CC(C)OP(=O)(OC(C)C)/C(=N/Nc1ccc([N+](=O)[O-])cc1)NN
OVCAR-4
  GI50: > 100 µM (inactive)
SNB-75
  GI50: 83.2 µM (inactive)
SNB-19
  GI50: > 100 µM (inactive)
HCT-15
  GI50: > 100 µM
SF-268
  GI50: > 100 µM (inactive)
NCI-H23
  GI50: 55.2 µM (inactive)
OVCAR-3
  GI50: > 100 µM (inactive)
HOP-92
  GI50: 65 µM (inactive)
NCI-H522
  GI50: 47.8 µM (inactive)
SW-620
  GI50: > 100 µM (inactive)
MOLT-4
  GI50: 61.9 µM (inactive)
TK-10
  GI50: > 100 µM (inactive)
U-251
  GI50: > 100 µM (inactive)
SR
  GI50: > 100 µM (inactive)

## Cc1ccccc1NC(=O)C(=O)C(C#N)c1ccccc1C (stereo unspecified)
SK-OV-3
  GI50: > 100 µM (inactive)
SNB-75
  GI50: > 100 µM (inactive)
SNB-19
  GI50: > 100 µM (inactive)
SF-295
  GI50: > 100 µM (inactive)
HCT-15
  GI50: > 100 µM
SF-268
  GI50: > 100 µM (inactive)
NCI-H23
  GI50: > 100 µM (inactive)
HT-29
  GI50: > 100 µM (inactive)
OVCAR-3
  GI50: > 100 µM (inactive)
HOP-92
  GI50: > 100 µM (inactive)
NCI-H522
  GI50: 59.3 µM (inactive)
SW-620
  GI50: 19.5 µM (inactive)
MOLT-4
  GI50: > 100 µM (inactive)
TK-10
  GI50: > 100 µM (inactive)
U-251
  GI50: > 100 µM (inactive)
SR
  GI50: > 100 µM (inactive)

## N#CCC(=O)N/N=C(\C(=O)Nc1ccc(Cl)c(Cl)c1)C1CN(c2ccccc2)N=C1N (stereo unspecified)
OVCAR-4
  GI50: > 100 µM (inactive)
SK-OV-3
  GI50: > 100 µM (inactive)
SNB-75
  GI50: > 100 µM (inactive)
SF-295
  GI50: > 100 µM (inactive)
HCT-15
  GI50: > 100 µM
SF-268
  GI50: > 100 µM (inactive)
NCI-H23
  GI50: > 100 µM (inactive)
HT-29
  GI50: > 100 µM (inactive)
OVCAR-3
  GI50: > 100 µM (inactive)
HOP-92
  GI50: > 100 µM (inactive)
NCI-H522
  GI50: > 100 µM (inactive)
MOLT-4
  GI50: 49.8 µM (inactive)
TK-10
  GI50: > 100 µM (inactive)
U-251
  GI50: > 100 µM (inactive)
SR
  GI50: > 100 µM (inactive)

## O=C1C2C(C(=O)N1c1ccccc1)C1c3ccccc3C2C2C(=O)N(c3ccccc3)C(=O)C21 (stereo unspecified)
OVCAR-4
  GI50: 22.8 µM (inactive)
SK-OV-3
  GI50: 8.22 µM (inactive)
SNB-75
  GI50: 3.73 µM (inactive)
SNB-19
  GI50: 6.27 µM (inactive)
SF-295
  GI50: 3.48 µM (inactive)
HCT-15
  GI50: 3.43 µM
SF-268
  GI50: 5.56 µM (inactive)
NCI-H23
  GI50: 18.5 µM (inactive)
HT-29
  GI50: 26.6 µM (inactive)
OVCAR-3
  GI50: 20.7 µM (inactive)
HOP-92
  GI50: 6.82 µM (inactive)
NCI-H522
  GI50: 2.46 µM (inactive)
SW-620
  GI50: 6.12 µM (inactive)
MOLT-4
  GI50: 20.7 µM (inactive)
TK-10
  GI50: > 100 µM (inactive)
U-251
  GI50: 2.82 µM (inactive)

## O=CC[C@H]1CCc2ccccc2C12CCC(=O)CC2
OVCAR-4
  GI50: > 100 µM (inactive)
SK-OV-3
  GI50: > 100 µM (inactive)
SNB-75
  GI50: 52.8 µM (inactive)
SNB-19
  GI50: 87.7 µM (inactive)
SF-295
  GI50: > 100 µM (inactive)
HCT-15
  GI50: 80.4 µM
SF-268
  GI50: 76.6 µM (inactive)
HT-29
  GI50: 47.9 µM (inactive)
OVCAR-3
  GI50: > 100 µM (inactive)
HOP-92
  GI50: 68.4 µM (inactive)
NCI-H522
  GI50: 43.2 µM (inactive)
SW-620
  GI50: 80.2 µM (inactive)
MOLT-4
  GI50: 30.5 µM (inactive)

## O=S1(=O)OCCOS(=O)(=O)C1(Br)Br
OVCAR-4
  GI50: > 100 µM (inactive)
SK-OV-3
  GI50: > 100 µM (inactive)
SNB-75
  GI50: > 100 µM (inactive)
SNB-19
  GI50: 80.7 µM (inactive)
SF-295
  GI50: > 100 µM (inactive)
SF-268
  GI50: > 100 µM (inactive)
NCI-H23
  GI50: > 100 µM (inactive)
HT-29
  GI50: > 100 µM (inactive)
OVCAR-3
  GI50: > 100 µM (inactive)
HOP-92
  GI50: > 100 µM (inactive)
NCI-H522
  GI50: > 100 µM (inactive)
SW-620
  GI50: > 100 µM (inactive)
MOLT-4
  GI50: > 100 µM (inactive)
TK-10
  GI50: > 100 µM (inactive)
SR
  GI50: > 100 µM (inactive)

## CNc1ccc(/C=C2\C=Cc3ccccc32)cc1
OVCAR-4
  GI50: 26.8 µM (inactive)
SK-OV-3
  GI50: 26.5 µM (inactive)
SNB-19
  GI50: 61.4 µM (inactive)
SF-295
  GI50: 31.3 µM (inactive)
HCT-15
  GI50: 20.9 µM
SF-268
  GI50: 5.55 µM (inactive)
NCI-H23
  GI50: 16.7 µM (inactive)
HT-29
  GI50: 18.7 µM (inactive)
OVCAR-3
  GI50: 21.2 µM (inactive)
HOP-92
  GI50: 19.1 µM (inactive)
NCI-H522
  GI50: 10.8 µM (inactive)
SW-620
  GI50: 33.1 µM (inactive)
MOLT-4
  GI50: 41.9 µM (inactive)
TK-10
  GI50: 23.9 µM (inactive)
U-251
  GI50: 32.4 µM (inactive)
SR
  GI50: 53.2 µM (inactive)

## Cc1c2c(cc3c(=O)ccn(CCN(C)C)c13)c(=O)ccn2CCN(C)C
OVCAR-4
  GI50: 4.4 µM (inactive)
SK-OV-3
  GI50: 8.61 µM (inactive)
SNB-75
  GI50: 11.9 µM (inactive)
SNB-19
  GI50: 8.34 µM (inactive)
SF-295
  GI50: 7.31 µM (inactive)
HCT-15
  GI50: 4.5 µM
SF-268
  GI50: 6.93 µM (inactive)
NCI-H23
  GI50: 14.9 µM (inactive)
OVCAR-3
  GI50: 14.2 µM (inactive)
HOP-92
  GI50: 6.1 µM (inactive)
NCI-H522
  GI50: 2.31 µM (inactive)
SW-620
  GI50: 3.81 µM (inactive)
MOLT-4
  GI50: 3.96 µM (inactive)
TK-10
  GI50: 11.7 µM (inactive)
U-251
  GI50: 8.34 µM (inactive)
SR
  GI50: 10.6 µM (inactive)
